From US20200319197A1, “Biomarkers of Preterm Birth” (Carmentix PTE. Ltd., priority 2017, published 2020)
Where two headings read alike, the source gives them in different places.

What was measured:
EFEMP1 = conditions: End1, 100 μM H2O2, 24 h, vs control untreated cells, ± SEM
FGA [1] = conditions: End1, 100 μM H2O2, 24 h, vs control untreated cells, ± SEM
LAMC2 [2] = test: LAMC2 in medium of End1 post-H2O2 treatment, ELISA; conditions: vs control untreated cells, ± SEM
Ect1 cells = test: MTT assay, cell viability and proliferation after H2O2 treatment, Ect1; conditions: vs untreated control
End1 cells = conditions: MTT, vs untreated control; for decrease in cell viability: significant
ECM1 [3] = conditions: Ect1, 200 μM H2O2, 24 h, vs control untreated cells, ± SEM
ECM1 [4] = test: ECM1 in medium of End1 post-H2O2 treatment, ELISA; conditions: vs control untreated cells, ± SEM
GGH [5] = test: GGH in medium of Ect1 post-H2O2 treatment, ELISA; conditions: for Fold change GGH expression: vs control untreated cells, ± SEM
GGH [6] = test: GGH in medium of End1 post-H2O2 treatment, ELISA; conditions: vs control untreated cells, ± SEM
ECM1 [7] = test: ECM1 in medium of End1 post-LPS treatment, ELISA; assay type: cell-based; conditions: for Fold change ECM1 expression: 24 h, vs control untreated cells, ± SEM
Method: (§1) At Day 1, cell culture was removed and substituted with KSFM without growth factor supplement. Cells were then treated with increasing doses of LPS (10 μg/ml, 25 μg/ml, 50 μg/ml) at Day 2.

ECM1 [8] = test: ECM1 in medium of Ect1 post-LPS treatment, ELISA; assay type: cell-based; conditions: 24 h, vs control untreated cells, ± SEM
Method: as §1

LAMC2 [9] = test: LAMC2 in medium of End1 post-LPS treatment, ELISA; assay type: cell-based; conditions: 24 h, vs control untreated cells, ± SEM
Method: as §1

FGA [10] = test: FGA in medium of End1 post-LPS treatment, ELISA; assay type: cell-based; conditions: for Fold change FGA expression: 24 h, vs control untreated cells, ± SEM
Method: as §1

GGH [11] = test: GGH in medium of End1 post-LPS treatment, ELISA; assay type: cell-based; conditions: for Fold change GGH expression: 24 h, vs control untreated cells, ± SEM
Method: as §1

GGH [12] = test: GGH in medium of Ect1 post-LPS treatment, ELISA; assay type: cell-based; conditions: for Fold change GGH expression: 24 h, vs control untreated cells, ± SEM
Method: as §1

FGA [13] = test: FGA in medium of Ect1 post-LPS treatment, ELISA; assay type: cell-based; conditions: for Fold change FGA expression: 24 h, vs control untreated cells, ± SEM
Method: as §1

LAMC2 [14] = test: LAMC2 in medium of Ect1 post-LPS treatment, ELISA; assay type: cell-based; conditions: Ect1, 50 μg/ml LPS, 24 h, vs control untreated cells, ± SEM
Method: as §1

[15] = End1, LPS treatment, dose not specified
[16] = Ect1, 3 different doses of LPS, statistically insignificant

OO [H2O2, Hydrogen peroxide]
Fold change EFEMP1 expression (EFEMP1): 0.73 ± 0.12 fold
Fold change FGA expression (FGA [1]): 0.96 ± 0.21 fold
Fold change LAMC2 expression (LAMC2 [2]; End1, 100 μM H2O2, 24 h): 1.15 ± 0.17 fold
Fold change LAMC2 expression (LAMC2 [2]; End1, 200 μM H2O2, 24 h): 0.95 ± 0.16 fold
effect on cell viability (Ect1 cells; 50 μM H2O2, 24 h): did not affect cell viability
effect on cell viability (Ect1 cells; 100 μM H2O2, 24 h): did not affect cell viability
decrease in cell density (Ect1 cells; 200 μM H2O2, 24 h, not statistically significant): 20%
decrease in cell viability (Ect1 cells; 400 μM H2O2, 24 h, significant): ~50%
effect on cell viability (End1 cells; 50 μM H2O2, 24 h): no effect
decrease in cell viability (End1 cells; 100 μM H2O2, 24 h): ~20%
decrease in cell viability (End1 cells; 200 μM H2O2, 24 h): ~50%
decrease in cell viability (End1 cells; 400 μM H2O2, 24 h): ~90%
Fold change ECM1 expression (ECM1 [3]): 1.09 ± 0.21 fold
Fold change ECM1 expression (ECM1 [4]; End1, 100 μM H2O2, 24 h): 1.02 ± 0.16 fold
Fold change ECM1 expression (ECM1 [4]; End1, 200 μM H2O2, 24 h): 0.90 ± 0.07 fold
Fold change GGH expression (GGH [5]; Ect1, 200 μM H2O2, 24 h): 0.73 ± 0.16 fold
Fold change GGH expression (GGH [5]; Ect1, 400 μM H2O2, 24 h): 1.01 ± 0.25 fold
GGH expression upon H2O2 treatment (GGH [5]; Ect1, H2O2 24 h, dose not given): remained relatively unchanged
Fold change GGH expression (GGH [6]; End1, 100 μM H2O2, 24 h): 0.75 ± 0.16 fold
Fold change GGH expression (GGH [6]; End1, 200 μM H2O2, 24 h): 0.86 ± 0.18 fold

Lipopolysaccharide [LPS]
Fold change ECM1 expression (ECM1 [7]; End1, 10 μg/ml LPS): 0.94 ± 0.14 fold
Fold change ECM1 expression (ECM1 [7]; End1, 25 μg/ml LPS): 0.87 ± 0.11 fold
Fold change ECM1 expression (ECM1 [7]; End1, 50 μg/ml LPS): 0.76 ± 0.11 fold
ECM1 expression in conditioned media (ECM1 [7]; End1, LPS treatment, dose not specified, statistically insignificant): small decrease
Fold change ECM1 expression (ECM1 [8]; Ect1, 10 μg/ml LPS): 0.87 ± 0.18 fold
Fold change ECM1 expression (ECM1 [8]; Ect1, 50 μg/ml LPS): 0.81 ± 0.17 fold
Fold change LAMC2 expression (LAMC2 [9]; End1, 10 μg/ml LPS): ~8 fold
Fold change LAMC2 expression (LAMC2 [9]; End1, 25 μg/ml LPS): ~8 fold
Fold change LAMC2 expression (LAMC2 [9]; End1, 50 μg/ml LPS): ~8 fold
Fold change FGA expression (FGA [10]; End1, 10 μg/ml LPS): 0.90 ± 0.10 fold
Fold change FGA expression (FGA [10]; End1, 25 μg/ml LPS): 0.92 ± 0.15 fold
Fold change FGA expression (FGA [10]; End1, 50 μg/ml LPS): 0.78 ± 0.10 fold
FGA expression level in conditioned media (FGA [10]; [15]): down-regulated
Fold change GGH expression (GGH [11]; End1, 10 μg/ml LPS): 0.69 ± 0.15 fold
Fold change GGH expression (GGH [11]; End1, 25 μg/ml LPS): 0.92 ± 0.19 fold
Fold change GGH expression (GGH [11]; End1, 50 μg/ml LPS): 0.76 ± 0.13 fold
GGH expression level in conditioned media (GGH [11]; [15]): down-regulated
Fold change GGH expression (GGH [12]; Ect1, 10 μg/ml LPS): 1.67 ± 0.40 fold
Fold change GGH expression (GGH [12]; Ect1, 25 μg/ml LPS): 1.42 ± 0.23 fold
Fold change GGH expression (GGH [12]; Ect1, 50 μg/ml LPS): 1.80 ± 0.52 fold
GGH expression in conditioned media (GGH [12]; [16]): slight increases
Fold change FGA expression (FGA [13]; Ect1, 10 μg/ml LPS): 1.05 ± 0.15 fold
Fold change FGA expression (FGA [13]; Ect1, 25 μg/ml LPS): 1.13 ± 0.12 fold
Fold change FGA expression (FGA [13]; Ect1, 50 μg/ml LPS): 1.19 ± 0.22 fold
FGA expression in conditioned media (FGA [13]; [16]): slight increases
Fold change LAMC2 expression (LAMC2 [14]): 5.99 ± 1.86 fold
